Earlier results on one compound are cited in patent publication US20050107349A1, “Method for the treatment or prevention of respiratory disorders with a cyclooxygenase-2 inhibitor in combination with a muscarinic receptor antagonist and compositions therewith” (Pharmacia Corporation, priority 2003, published 2005).

Data set [1] relates to subjects suffering from asthma.

`C[N+]1(C)[C@@H]2C[C@@H](OC(=O)C(O)(c3cccs3)c3cccs3)C[C@H]1[C@@H]1O[C@@H]12` [tiotropium, (1α, 2β, 4β, 5α, 7β)-7-[(hydroxy-2-thienylacetyl)oxy]-9,9-dimethyl-3-oxa-9-azoniatricyclo [3.3.1.0^2,4]nonane bromide monohydrate]: the “dose-dependent and prolonged bronchodilator effect (duration)” value with patients with COPD is at most 48 h. Moreover, the bronchodilation result in data set [1] was “prolonged bronchodilation”.
